The results in this text go back to US20240365779A1, “POLLEN PRESERVATION COMPOSITIONS” (PowerPollen, Inc., priority 2017, published 2024).

The test system of data set [1] is maize pollen. The experiment in a line: Germination assay of stored maize pollen (pollen tube formation). The format is cell-based. Particulars: equal portion with pollen, 20 hours of storage at 4 degrees Celsius. Here is the method:
Casein and cellulose were both tested separately as possible substances for maintaining or increasing pollen viability. […] Freshly harvested maize pollen was harvested from actively shedding tassels. The pollen was divided into two equal portions, each of which was placed into a 50 ml centrifuge tube. […] Each tube was stored for 24 hours at 4 degrees Celsius. A germination assay was conducted after 24 hours. […] Sonneborn® PD-23 mineral oil was tested as a pollen separation agent. This substance was a liquid at all stages of the described experiment. Freshly harvested pollen from a bulk of maize plants was placed into mineral oil and stored at 4 degree Celsius for a period of 20 hours. After 20 hours, germination media was applied into the oil formulation. The results supported that liquid serves as a proficient storage media for pollen. […] This further supports the concept that separation of pollen grains increases viability.

Data set [2] has as its system maize pollen. The experiment in a line: Maize pollen viability by Amphasys impedance flow cytometry after storage with a substance. The format is cell-based. The note with it: 1:1 volume pollen to sugar, 4° C. How it is done: In initial experiments considering different types separation compounds to use for pollen storage, experiments were conducted using activated charcoal as a separator. Field pollen was hand collected from various maize genotypes, and temporarily stored in 50 ml conical tubes, at 5° C. T0 Amphasys was conducted along with pollen moisture content (PMC) determination of the unmixed control pollen. Amphasys provides a reliable determination of pollen viability using an impedance flow cytometer, which measures the electrical properties of pollen grains. Viability at T0 was 97% with a PMC of 57% using the standard overnight oven method. The pollen was mixed with charcoal powder (activated charcoal) at various percentages. Activated charcoal is often used to absorb toxic substances. Mixed samples were then stored at 5° C., in uncapped 50 mL tubes. Timepoint data was collected at days 1 and 6, using Amphasys when the concentration of charcoal would allow. Small quantities of sample were suspended in Ampha 6 media and then filtered with a 150 μm filter to remove any large particles that might affect the fluidics on the Amphasys. […] Used in lower quantities, 2.5-25% in this case, viability remained as high as 92% at 6 days storage.
In continued efforts to test different substances for the purposes of pollen grain separation, an experiment was conducted with a series of different saccharides to determine efficacy for pollen grain separation and preservation. Mixed pollen was collected from various actively-shedding maize plants grown in the greenhouse. Hand collection was done with a funnel and screen to remove anthers. The bulk pollen sample was divided into four equal portions, each of which was approximately 5 mL in volume. Each sample of pollen was stored in a capped 50 mL conical tube at 5° C. overnight and its viability was tested using Amphasys roughly 24 hours after collection. A 1:1 volume ratio of one of three different types of sugars was added to each tube so that the amount of sugar was equal to the amount of pollen in each tube. […]

A further data set relates to wheat pollen. Put plainly: Wheat pollen viability by Amphasys after anther storage. The format is cell-based. Here is the method:
In order to determine whether the method of maintaining pollen separation was effective in other plant species, experiments were conducted with wheat. Wheat heads of Grandin wheat variety were collected at early emergence stage and post-emergence stage. At the post emergence stage, a few anthers were exposed on the wheat heads. The anthers were collected from a subsample of the heads and the collected anthers were ground with a nylon pestle in 1.5 mL of Ampha 6 media, filtered, and run through the Amphasys system to measure T0 viability. Amphasys provides a reliable determination of pollen viability using an impedance flow cytometer, which measures the electrical properties of pollen grains.
A second subsample of the early emergence stage and post-emergence wheat heads were taken from different regions of each head. These samples were stored whole at 5° C. in cryo vials. The samples in the vials had either no storage medium, lactose particulate storage medium, or lactose (Lab grade D-lactose monohydrate, RPI #L26100-1000.0) combined with 2% Sipernat® 340 storage medium. After storage for either 3 or 14 days, pollen was extracted from the stored anthers using the nylon pestle, and viability was determined using Amphasys.

In a further data set the test system is rice pollen. Put plainly: Rice pollen viability by Amphasys after anther storage. In kind it is cell-based. How it is done:
Another experiment was conducted to test the efficacy of maintaining separation of pollen grains in rice. Rice anthers were collected from a pool of cut back glumes. One sample of the anthers was ground with a nylon pestle in 1.5 mL of Ampha 6 media, filtered, and run through the Amphasys system to measure T0 viability. Amphasys provides a reliable determination of pollen viability using an impedance flow cytometer, which measures the electrical properties of pollen grains.
A second subsample of the anthers was divided into three groups that were stored whole at 5° C. in cryo vials. […]. The samples in the vials had either no storage medium, lactose particulate storage medium, or chemical grade lactose combined with 2% Sipernat® 340 storage medium. After storage for either 4 days or 10 days, pollen was extracted from the stored anthers using the nylon pestle, and viability was determined using Amphasys.

Data set [3] in a line: Flowability / clumping observation of pollen-substance mixtures. Particulars: 1:1 pollen to sugar, 4° C. The format is physicochemical.

Entries after “also recorded” stand apart in the source; their conditions may differ.

As to casein, the “viability (germination assay)” value in the data set with maize pollen [1] is listed as “largely, if not completely unviable; also recorded: little to no viability”.

In the case of `OC[C@H]1O[C@@H](O[C@H]2[C@H](O)[C@@H](O)C(O)O[C@@H]2CO)[C@H](O)[C@@H](O)[C@H]1O` (some centres unmarked) [lactose], the viability with maize pollen [2] (Day 8) was determined as 77%. Also, the “Early Emergence Heads Viability (%)” value in the data set with wheat pollen (Day 3, stored whole at 5° C.) is recorded as 28-41%; with wheat pollen (Day 14, stored whole at 5° C.), 39-44%. In addition, the “Post-emergence Heads Viability (%)” value in the data set with wheat pollen (Day 3, stored whole at 5° C.) is 27-35%; in the data set on wheat pollen (Day 14, stored whole at 5° C.) it was 6-17%. Besides, the “Pollen Viability (%)” value in the data set with rice pollen (Day 4, anthers stored whole at 5° C.) is on record as 57-63%; with rice pollen (Day 10, anthers stored whole at 5° C.), 24-27%. For the same molecule, the “flowability of pollen in sample” value in data set [3] was “slightly clumpy”.

On to `OC[C@H]1O[C@H](O[C@H]2O[C@H](CO)[C@@H](O)[C@H](O)[C@H]2O)[C@H](O)[C@@H](O)[C@@H]1O` [trehalose], for which the viability entry was “sharper decline” in the data set on maize pollen [2] (Day 2, compared to the other 3 samples) and “slight decline in viability” with maize pollen [2] (after 24 hours of storage, compared to the other samples).
